Converted amounts (≈) assume the structure as drawn. Like-named read-outs stand apart in the source and are kept apart here.
Key:
C. albicans = experiment: Antimicrobial susceptibility testing (microdilution MIC90), C. albicans strains; assay type: cell-based; details: Candida albicans; C. albicans (22 strains tested); 24 h, visually and spectrophotometrically
Protocol: (§1) Sterile plastic microtitration plates containing flat-bottomed wells were used. The plates contained serial dilution of the antifungal agents with a volume of assay medium of 100 μL/well. Two drug-free medium wells were used as sterility and growth controls. The trays were inoculated with 100 μL/well of the final inoculum, with the exception of sterility control wells. […] The microtitration plates were incubated at 37° C. for 24 h. The minimal inhibitory concentrations (MICs) were determined at 24 h both visually and spectrophotometrically measuring the turbidity at 595 nm with a Varian model 1475 spectrophotometer. Results of biological tests are shown in Table 2, biological data are reported as MIC90 that is the minimum concentration required to inhibit the growth of at least the 90% of the strains tested for each species.

C. guilliermondii = experiment: Antimicrobial susceptibility testing (microdilution MIC90), C. guilliermondii strains; assay type: cell-based, Candida guilliermondii; details: Meyerozyma guilliermondii; C. guilliermondii (10 strains tested); 24 h
Protocol: as §1

C. krusei = experiment: Antimicrobial susceptibility testing (microdilution MIC90), C. krusei strains; assay type: cell-based, Candida krusei; details: Pichia kudriavzevii, 24 h
Protocol: as §1

C. parapsilosis = experiment: Antimicrobial susceptibility testing (microdilution MIC90), C. parapsilosis strains; assay type: cell-based, Candida parapsilosis; details: Lodderomyces parapsilosis; C. parapsilosis (24 strains tested); 24 h
Protocol: as §1

C. tropicalis = experiment: Antimicrobial susceptibility testing (microdilution MIC90), C. tropicalis strains; assay type: cell-based; details: Candida tropicalis; C. tropicalis (11 strains tested); 24 h
Protocol: as §1

C. kefyr = experiment: Antimicrobial susceptibility testing (microdilution MIC90), C. kefyr strains; assay type: cell-based, Candida kefyr; details: Kluyveromyces marxianus; C. kefyr (10 strains tested); 24 h
Protocol: as §1

C. glabrata = experiment: Antimicrobial susceptibility testing (microdilution MIC90), C. glabrata strains; assay type: cell-based, Candida glabrata; details: Nakaseomyces glabratus; C. glabrata (26 strains tested); 24 h
Protocol: as §1

[1] = tested on: C. albicans fluconazole resistant strains; experiment: microbe, parasite or virus in culture; assay type: cell-based; details: Candida albicans, 24 h
[2] = tested on: C. glabrata fluconazole resistant strains; experiment: microbe, parasite or virus in culture; assay type: cell-based, Candida glabrata; details: Nakaseomyces glabratus, 24 h
[3] = tested on: chitinase enzyme extracted from Trichoderma viride; experiment: Chitinase inhibition assay (NP-GlcNAc substrate); assay type: biochemical
Protocol: Chitinase inhibition assays were conducted against an example of the GH18 family of chitinases, i.e the chitinase enzyme extracted from Trichoderma viride. This enzyme has an high degree of identity compared to chitinase 4 of Candida albicans, and is commercially available from Sigma-Aldrich (catalogue ID: C8241).
The substrate used was the NP-GlcNAc (Sigma-Aldrich, catalogue ID: N9376) dissolved in MES 50 mM at pH6.0; the final concentration was 250 μM. The enzyme was resuspended at 0.11 mg/ml in MES 50 mM at pH 6.0, with a final concentration for the assay of 73 nM diluting with MES 50 mM and BSA 20 μg/ml at pH 6.0. A stock solution of the inhibitors was prepared at 50 mM in DMSO 100%.
The mixture with the inhibitor at various concentrations and the enzyme was prepared directly into the reading plate and left to incubate at room temperature for 20 minutes or three hours. At the end of the incubation times, the substrate was added and the reading was conducted by recording the values up to a maximum time of 10 minutes. The substrate concentration was measured by reading UV absorption at 300 nm (εM^300: 11100), while, the product of hydrolysis were measured at 400 nm (ΔεM^400: 2120). Both IC50 and Ki can be calculated.

[4] = C. krusei (13 strains tested), read-out: MIC90
[5] = strain DSY284, ERG11 Mutation, mean of three measurements
[6] = strain DSY289, ERG11 Mutation (2)
[7] = strain DSY291, ERG11 Mutation (2)
[8] = strain DSY292, ERG11 Mutation (3)
[9] = strain DSY751, ↑MDR1, ERG11 Mutation
[10] = Enz.-inhib. incubation time 20 min
[11] = Enz.-inhib. incubation time 3 h

Molecule `C/C=C/CNC(=N)NCCCCCCCCN1CCCCCOc2ccccc2CNC(=N)NC1=O` [Example 17, 1-[(E)-but-2-enyl]-3-[8-(4-imino-6-oxo-13-oxa-3,5,7-triazabicyclo[12.4.0]octadeca-1(14),15,17-trien-7-yl)octyl]guanidine] has an MIC90 (C. albicans) of 4 µg/mL (≈ 8 µM), an MIC90 (C. guilliermondii) of 2 µg/mL (≈ 4 µM) and an MIC90 (C. krusei; [4]) of 8 µg/mL (≈ 16 µM). For the same molecule, the MIC90 (C. parapsilosis) was 2 µg/mL (≈ 4 µM), the MIC90 (C. tropicalis) was 2 µg/mL (≈ 4 µM) and the MIC90 (C. kefyr) was 4 µg/mL (≈ 8 µM). The MIC90 (C. glabrata) was 8 µg/mL (≈ 16 µM), the MIC [1, 5] was 2 µg/mL (≈ 4 µM) and the MIC [1, 6] was 2 µg/mL (≈ 4 µM). It also gave an MIC [1, 7] of 4 µg/mL (≈ 8 µM), an MIC [1, 8] of 4 µg/mL (≈ 8 µM) and an MIC ([1]; strain DSY296, ERG11 Mutation) of 4 µg/mL (≈ 8 µM). It also gave an MIC ([1]; strain DSY348, ERG11 Mutation) of 2 µg/mL (≈ 4 µM), an MIC ([1]; strain DSY732, ↑CDR1-CDR2) of 2 µg/mL (≈ 4 µM) and an MIC ([1]; strain DSY735, ↑CDR1-CDR2) of 2 µg/mL (≈ 4 µM). For the same molecule, the MIC ([1]; strain DSY750, ↑MDR1) was 4 µg/mL (≈ 8 µM), the MIC [1, 9] was 4 µg/mL (≈ 8 µM) and the MIC ([1]; strain DSY775, ERG11 Mutation) was 4 µg/mL (≈ 8 µM). The MIC ([1]; strain DSY2323, ↑CDR2-MDR1) was 4 µg/mL (≈ 8 µM), the MIC ([2]; strain DSY530, ↑CDR1) was 8 µg/mL (≈ 16 µM) and the MIC ([2]; strain DSY754, ↑CDR1) was 16 µg/mL (≈ 32 µM). The MIC ([2]; strain DSY756, ↑CDR1-CDR2-SNQ2) was 8 µg/mL (≈ 16 µM), the MIC ([2]; strain DSY2254, ↑CDR1-CDR2) was 16 µg/mL (≈ 32 µM) and the MIC ([2]; strain DSY2271, ↑CDR2) was 8 µg/mL (≈ 16 µM). The “inhibition of the chitinase enzyme” value [3] was “active inhibitor”, the IC50 [3, 10] was 151 µM and the Ki [3, 10] was 48.8 µM. The IC50 [3, 11] was 55 µM and the Ki [3, 11] was 17.8 µM.

`C/C=C/CNC(=N)NCCCCCCCCN1CCCCOc2ccccc2CNC(=N)NC1=O` [Example 16, 1-[(E)-but-2-enyl]-3-[8-(4-imino-6-oxo-12-oxa-3,5,7-triazabicyclo[11.4.0]heptadeca-1(13),14,16-trien-7-yl)octyl]guanidine] gave an MIC90 (C. albicans) of 16 µg/mL (≈ 32.9 µM), an MIC90 (C. guilliermondii) of 16 µg/mL (≈ 32.9 µM) and an MIC90 (C. krusei; [4]) of 32 µg/mL (≈ 65.9 µM). For the same molecule, the MIC90 (C. parapsilosis) was 8 µg/mL (≈ 16.5 µM), the MIC90 (C. tropicalis) was 8 µg/mL (≈ 16.5 µM) and the MIC90 (C. kefyr) was 4 µg/mL (≈ 8.24 µM). The MIC90 (C. glabrata) was 64 µg/mL (≈ 132 µM), the MIC [1, 5] was 16 µg/mL (≈ 32.9 µM) and the MIC [1, 6] was 8 µg/mL (≈ 16.5 µM). It also gave an MIC [1, 7] of 8 µg/mL (≈ 16.5 µM), an MIC [1, 8] of 16 µg/mL (≈ 32.9 µM) and an MIC ([1]; strain DSY296, ERG11 Mutation) of 16 µg/mL (≈ 32.9 µM). It also gave an MIC ([1]; strain DSY348, ERG11 Mutation) of 8 µg/mL (≈ 16.5 µM), an MIC ([1]; strain DSY732, ↑CDR1-CDR2) of 8 µg/mL (≈ 16.5 µM) and an MIC ([1]; strain DSY735, ↑CDR1-CDR2) of 8 µg/mL (≈ 16.5 µM). For the same molecule, the MIC ([1]; strain DSY750, ↑MDR1) was 16 µg/mL (≈ 32.9 µM), the MIC [1, 9] was 16 µg/mL (≈ 32.9 µM) and the MIC ([1]; strain DSY775, ERG11 Mutation) was 16 µg/mL (≈ 32.9 µM). It also gave an MIC ([1]; strain DSY2323, ↑CDR2-MDR1) of 8 µg/mL (≈ 16.5 µM), an MIC ([2]; strain DSY530, ↑CDR1) of 64 µg/mL (≈ 132 µM) and an MIC ([2]; strain DSY754, ↑CDR1) of 64 µg/mL (≈ 132 µM). For the same molecule, the MIC ([2]; strain DSY756, ↑CDR1-CDR2-SNQ2) was 64 µg/mL (≈ 132 µM), the MIC ([2]; strain DSY2254, ↑CDR1-CDR2) was 64 µg/mL (≈ 132 µM) and the MIC ([2]; strain DSY2271, ↑CDR2) was 64 µg/mL (≈ 132 µM).

`OC(Cn1cncn1)(Cn1cncn1)c1ccc(F)cc1F` [F, Fluconazole, reference compound] gave an MIC90 (C. albicans) of 2 µg/mL (≈ 6.53 µM), an MIC90 (C. guilliermondii) of 4 µg/mL (≈ 13.1 µM) and an MIC90 (C. krusei) of 256 µg/mL (≈ 836 µM). It also gave an MIC90 (C. parapsilosis) of 0.5 µg/mL (≈ 1.63 µM), an MIC90 (C. tropicalis) of 2 µg/mL (≈ 6.53 µM) and an MIC90 (C. kefyr) of 1 µg/mL (≈ 3.27 µM). It also gave an MIC90 (C. glabrata) of 16 µg/mL (≈ 52.2 µM), an MIC [1, 5] of 256 µg/mL (≈ 836 µM) and an MIC [1, 6] of 256 µg/mL (≈ 836 µM). The MIC [1, 7] was 2 µg/mL (≈ 6.53 µM), the MIC [1, 8] was 64 µg/mL (≈ 209 µM) and the MIC ([1]; strain DSY296, ERG11 Mutation) was 128 µg/mL (≈ 418 µM). For the same molecule, the MIC ([1]; strain DSY348, ERG11 Mutation) was 32 µg/mL (≈ 104 µM), the MIC ([1]; strain DSY732, ↑CDR1-CDR2) was 16 µg/mL (≈ 52.2 µM) and the MIC ([1]; strain DSY735, ↑CDR1-CDR2) was 64 µg/mL (≈ 209 µM). It also gave an MIC ([1]; strain DSY750, ↑MDR1) of 2 µg/mL (≈ 6.53 µM), an MIC [1, 9] of 256 µg/mL (≈ 836 µM) and an MIC ([1]; strain DSY775, ERG11 Mutation) of 128 µg/mL (≈ 418 µM). The MIC ([1]; strain DSY2323, ↑CDR2-MDR1) was 32 µg/mL (≈ 104 µM), the MIC ([2]; strain DSY530, ↑CDR1) was 64 µg/mL (≈ 209 µM) and the MIC ([2]; strain DSY754, ↑CDR1) was 64 µg/mL (≈ 209 µM). It also gave an MIC ([2]; strain DSY756, ↑CDR1-CDR2-SNQ2) of 128 µg/mL (≈ 418 µM), an MIC ([2]; strain DSY2254, ↑CDR1-CDR2) of 128 µg/mL (≈ 418 µM) and an MIC ([2]; strain DSY2271, ↑CDR2) of 64 µg/mL (≈ 209 µM).

With `C/C=C/CNC(=N)NCCCCCCCCN1CCCCCCOc2ccccc2CNC(=N)NC1=O` [Example 18, 1-[(E)-but-2-enyl]-3-[8-(4-imino-6-oxo-14-oxa-3,5,7-triazabicyclo[13.4.0]nonadeca-1(15), 16,18-trien-7-yl)octyl]guanidine] the MIC90 (C. albicans) was 4 µg/mL (≈ 7.79 µM), the MIC90 (C. guilliermondii) was 2 µg/mL (≈ 3.89 µM) and the MIC90 (C. krusei; [4]) was 4 µg/mL (≈ 7.79 µM). For the same molecule, the MIC90 (C. parapsilosis) was 2 µg/mL (≈ 3.89 µM), the MIC90 (C. tropicalis) was 1 µg/mL (≈ 1.95 µM) and the MIC90 (C. kefyr) was 2 µg/mL (≈ 3.89 µM). The MIC90 (C. glabrata) was 16 µg/mL (≈ 31.1 µM), the MIC [1, 5] was 8 µg/mL (≈ 15.6 µM) and the MIC [1, 6] was 8 µg/mL (≈ 15.6 µM). It also gave an MIC [1, 7] of 16 µg/mL (≈ 31.1 µM), an MIC [1, 8] of 16 µg/mL (≈ 31.1 µM) and an MIC ([1]; strain DSY296, ERG11 Mutation) of 16 µg/mL (≈ 31.1 µM). For the same molecule, the MIC ([1]; strain DSY348, ERG11 Mutation) was 8 µg/mL (≈ 15.6 µM), the MIC ([1]; strain DSY732, ↑CDR1-CDR2) was 16 µg/mL (≈ 31.1 µM) and the MIC ([1]; strain DSY735, ↑CDR1-CDR2) was 16 µg/mL (≈ 31.1 µM). The MIC ([1]; strain DSY750, ↑MDR1) was 16 µg/mL (≈ 31.1 µM), the MIC [1, 9] was 16 µg/mL (≈ 31.1 µM) and the MIC ([1]; strain DSY775, ERG11 Mutation) was 16 µg/mL (≈ 31.1 µM). The MIC ([1]; strain DSY2323, ↑CDR2-MDR1) was 16 µg/mL (≈ 31.1 µM), the MIC ([2]; strain DSY530, ↑CDR1) was 32 µg/mL (≈ 62.3 µM) and the MIC ([2]; strain DSY754, ↑CDR1) was 32 µg/mL (≈ 62.3 µM). For the same molecule, the MIC ([2]; strain DSY756, ↑CDR1-CDR2-SNQ2) was 64 µg/mL (≈ 125 µM), the MIC ([2]; strain DSY2254, ↑CDR1-CDR2) was 64 µg/mL (≈ 125 µM) and the MIC ([2]; strain DSY2271, ↑CDR2) was 32 µg/mL (≈ 62.3 µM).

— patent US10071975B2, “Macrocyclic amidinourea derivatives, methods of preparation and uses thereof as chitinase inhibitors” (CYGNET BIOSCIENCES B.V., priority 2013, dated 2018)
